Source: patent US12486290B2, “Isoindolinone and indazole compounds for the degradation of EGFR” (C4 THERAPEUTICS, INC., priority 2019, dated 2025)

Assays:
Format in all cases: cell-based
[1] = biological target: T1, EGFR L858R (NCI-H3255 cells) (Homo sapiens, UniProt P00533, L858R); test: EGFR (L858R) degradation analysis, Total EGFR (L858R) HTRF, NCI-H3255 cells; conditions: 6 hours
T1 construct: NCI-H3255 (harboring EGFR heterozygous L858R mutation); host or cells: NCI-H3255
Method in brief: (§1)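 Cells (10000/well NCI-H1975 and NCI-H1975+CS, 1000/well NCI-H3255) treated with 11-point half-log titrations from 10 μM top, in duplicate, for 6 hours at 37° C., 5% CO2. Total EGFR (L858R) quantified by HTRF FRET; untreated cells as negative and cell-free wells as positive control.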

[2] = biological target: T2, EGFR T790M/L858R (NCI-H1975 cells) (Homo sapiens, UniProt P00533, L858R/T790M); test: EGFR (L858R) degradation analysis, Total EGFR (L858R) HTRF, NCI-H1975 cells; conditions: 6 hours
T2 construct: NCI-H1975 (harboring EGFR heterozygous T790M/L858R mutations); host or cells: NCI-H1975
Method in brief: as §1

[3] = biological target: T3, EGFR T790M/L858R/C797S (NCI-H1975+CS cells) (Homo sapiens, UniProt P00533, C797S/L858R/T790M); test: EGFR (L858R) degradation analysis, Total EGFR (L858R) HTRF, NCI-H1975+CS cells; conditions: 6 hours, read-out: H1975 C797S clone EGFR DC50
T3 construct: NCI-H1975+CS (harboring EGFR heterozygous T/790M/L858R/C797S mutations) was generated using CRISPR technology; host or cells: NCI-H1975+CS (CRISPR-edited NCI-H1975)
Excerpt: NCI-H1975 (harboring EGFR heterozygous T790M/L858R mutations) and NCI-H3255 (harboring EGFR heterozygous L858R mutation) were purchased from ATCC and NCI, respectively. NCI-H1975+CS (harboring EGFR heterozygous T/790M/L858R/C797S mutations) was generated using CRISPR technology to introduce the additional C797S mutation by Horizon Discovery. RPMI 1640 no-phenol red medium and fetal bovine serum (FBS) were purchased from Gibco (Grand Island, NY, USA). Cell culture flasks and 384-well microplates were acquired from VWR (Radnor, PA, USA). Total EGFR (L858R) HTRF assay kits were purchased from Cisbio (Bedford, MA, USA).
Degradation of EGFR protein containing L858R mutation was determined based on quantification of FRET signal using Total EGFR (L858R) HTRF assay kit. Test compounds were added to the 384-well plate from a top concentration of 10 μM with 11 points, half log titration in duplicates. NCI-H1975, NCI-H1975+CS or NCI-H3255 cells were added into 384-well plates at a cell density of 10000, 10000 or 1000 cells per well, respectively. The plates were kept at 37° C. with 5% CO2 for 6 hours. Cells treated in the absence of the test compound were the negative control. Positive control was set by wells containing all reagents but no cells. FRET signal was acquired on EnVision™ Multilabel Reader (PerkinElmer, Santa Clara, CA, USA).

T2 sequence (P00533 25-1210 T790M/L858R): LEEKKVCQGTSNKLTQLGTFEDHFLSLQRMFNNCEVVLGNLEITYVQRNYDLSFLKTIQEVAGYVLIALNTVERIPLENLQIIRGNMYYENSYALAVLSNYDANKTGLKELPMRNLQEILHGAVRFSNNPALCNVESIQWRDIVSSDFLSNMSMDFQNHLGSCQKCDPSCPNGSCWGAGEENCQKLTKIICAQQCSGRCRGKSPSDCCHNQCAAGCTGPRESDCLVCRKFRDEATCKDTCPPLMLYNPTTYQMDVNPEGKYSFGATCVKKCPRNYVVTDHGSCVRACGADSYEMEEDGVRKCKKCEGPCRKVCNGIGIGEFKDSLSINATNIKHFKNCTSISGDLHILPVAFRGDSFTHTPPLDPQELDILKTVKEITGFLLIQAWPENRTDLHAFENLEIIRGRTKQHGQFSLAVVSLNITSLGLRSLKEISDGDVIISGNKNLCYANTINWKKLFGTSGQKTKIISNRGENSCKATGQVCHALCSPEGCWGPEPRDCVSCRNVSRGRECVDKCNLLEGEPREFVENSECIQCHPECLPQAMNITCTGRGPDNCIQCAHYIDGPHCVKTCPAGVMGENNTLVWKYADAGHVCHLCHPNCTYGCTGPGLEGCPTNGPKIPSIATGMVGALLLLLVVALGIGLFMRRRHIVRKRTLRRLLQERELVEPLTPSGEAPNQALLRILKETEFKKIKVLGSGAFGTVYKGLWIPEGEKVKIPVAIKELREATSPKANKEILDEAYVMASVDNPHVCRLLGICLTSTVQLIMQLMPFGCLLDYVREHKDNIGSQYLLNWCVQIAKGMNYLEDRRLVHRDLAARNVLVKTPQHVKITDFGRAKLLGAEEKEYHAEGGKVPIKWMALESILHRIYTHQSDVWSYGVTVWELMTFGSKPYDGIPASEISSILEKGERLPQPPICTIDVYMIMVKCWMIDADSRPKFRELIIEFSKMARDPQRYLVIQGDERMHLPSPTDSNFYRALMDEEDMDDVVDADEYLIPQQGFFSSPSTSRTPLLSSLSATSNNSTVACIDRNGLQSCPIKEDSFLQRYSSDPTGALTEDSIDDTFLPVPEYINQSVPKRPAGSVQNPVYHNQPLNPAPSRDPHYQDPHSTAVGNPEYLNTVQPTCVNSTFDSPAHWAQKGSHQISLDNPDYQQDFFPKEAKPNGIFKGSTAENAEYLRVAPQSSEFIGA
T1 sequence (P00533 25-1210 L858R): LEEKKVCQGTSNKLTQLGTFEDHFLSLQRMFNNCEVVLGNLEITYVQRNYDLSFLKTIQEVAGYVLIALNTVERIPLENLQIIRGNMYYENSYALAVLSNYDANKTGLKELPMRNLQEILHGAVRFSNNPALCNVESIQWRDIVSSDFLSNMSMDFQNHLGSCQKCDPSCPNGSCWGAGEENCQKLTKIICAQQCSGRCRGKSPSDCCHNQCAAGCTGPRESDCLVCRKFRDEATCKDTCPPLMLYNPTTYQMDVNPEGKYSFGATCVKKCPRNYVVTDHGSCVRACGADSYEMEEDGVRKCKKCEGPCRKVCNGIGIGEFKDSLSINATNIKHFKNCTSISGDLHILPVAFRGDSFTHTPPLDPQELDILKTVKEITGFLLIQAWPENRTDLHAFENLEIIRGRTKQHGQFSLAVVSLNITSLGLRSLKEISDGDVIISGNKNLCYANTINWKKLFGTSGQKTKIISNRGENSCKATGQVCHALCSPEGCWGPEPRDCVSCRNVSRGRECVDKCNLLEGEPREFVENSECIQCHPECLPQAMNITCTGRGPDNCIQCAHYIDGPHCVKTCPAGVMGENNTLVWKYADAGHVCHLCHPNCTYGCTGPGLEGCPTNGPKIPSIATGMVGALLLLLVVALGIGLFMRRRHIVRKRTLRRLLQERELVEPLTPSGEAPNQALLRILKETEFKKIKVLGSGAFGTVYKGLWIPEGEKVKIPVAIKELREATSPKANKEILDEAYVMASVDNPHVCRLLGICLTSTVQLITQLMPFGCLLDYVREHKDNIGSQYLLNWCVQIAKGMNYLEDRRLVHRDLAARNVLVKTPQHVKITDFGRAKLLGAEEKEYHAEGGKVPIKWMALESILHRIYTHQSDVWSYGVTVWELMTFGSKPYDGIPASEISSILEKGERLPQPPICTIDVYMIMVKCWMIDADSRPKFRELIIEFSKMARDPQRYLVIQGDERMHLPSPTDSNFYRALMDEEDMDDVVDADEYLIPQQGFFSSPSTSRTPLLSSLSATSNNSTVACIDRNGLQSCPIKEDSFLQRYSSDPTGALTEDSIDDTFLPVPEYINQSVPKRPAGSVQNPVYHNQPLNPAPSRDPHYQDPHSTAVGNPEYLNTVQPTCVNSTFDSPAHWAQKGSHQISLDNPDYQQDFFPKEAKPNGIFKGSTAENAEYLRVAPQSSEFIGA
T3 sequence (P00533 25-1210 T790M/C797S/L858R): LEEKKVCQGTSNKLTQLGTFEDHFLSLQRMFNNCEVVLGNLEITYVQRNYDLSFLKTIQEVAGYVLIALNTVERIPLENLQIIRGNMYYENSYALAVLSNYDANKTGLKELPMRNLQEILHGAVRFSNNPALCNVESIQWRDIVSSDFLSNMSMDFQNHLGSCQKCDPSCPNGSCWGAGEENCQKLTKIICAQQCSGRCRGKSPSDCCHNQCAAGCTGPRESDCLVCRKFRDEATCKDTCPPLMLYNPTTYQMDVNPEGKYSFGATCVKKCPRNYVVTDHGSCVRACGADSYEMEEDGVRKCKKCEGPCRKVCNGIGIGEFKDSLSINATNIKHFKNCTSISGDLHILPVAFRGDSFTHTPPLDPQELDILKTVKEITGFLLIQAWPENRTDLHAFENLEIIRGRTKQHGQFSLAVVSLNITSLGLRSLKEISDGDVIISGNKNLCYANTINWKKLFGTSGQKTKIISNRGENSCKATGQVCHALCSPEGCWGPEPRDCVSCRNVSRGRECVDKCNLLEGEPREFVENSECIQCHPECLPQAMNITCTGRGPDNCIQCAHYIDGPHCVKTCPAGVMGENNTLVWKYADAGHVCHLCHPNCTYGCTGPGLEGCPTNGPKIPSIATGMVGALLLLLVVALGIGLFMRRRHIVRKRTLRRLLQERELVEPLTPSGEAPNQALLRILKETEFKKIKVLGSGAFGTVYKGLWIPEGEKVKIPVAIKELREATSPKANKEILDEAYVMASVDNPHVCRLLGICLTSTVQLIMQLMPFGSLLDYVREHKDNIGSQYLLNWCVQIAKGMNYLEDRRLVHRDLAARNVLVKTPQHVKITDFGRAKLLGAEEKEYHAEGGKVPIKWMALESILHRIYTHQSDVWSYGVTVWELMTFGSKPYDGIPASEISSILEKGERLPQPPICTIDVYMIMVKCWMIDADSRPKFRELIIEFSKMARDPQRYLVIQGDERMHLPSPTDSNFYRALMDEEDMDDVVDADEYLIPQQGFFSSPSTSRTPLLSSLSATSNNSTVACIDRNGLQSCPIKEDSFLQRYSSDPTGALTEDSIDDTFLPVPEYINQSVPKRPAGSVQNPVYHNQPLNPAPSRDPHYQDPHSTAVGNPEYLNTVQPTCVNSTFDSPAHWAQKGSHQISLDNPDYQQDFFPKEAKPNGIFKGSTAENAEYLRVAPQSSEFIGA

Structure (SMILES) | DC50 [1] [nM] | DC50 [2] [nM] | DC50 [3] [nM]
O=C1CC[C@H](Nc2ccc(C3CCN(C(=O)CN4CCN(Cc5ccc(-c6cc(F)c7c(c6)C(=O)N(C(C(=O)Nc6nccs6)c6ncn8c6CCC8)C7)cc5)CC4)CC3)c(F)c2)C(=O)N1 (stereo partly drawn) [Compound 59, 2-(6,7-dihydro-5H-pyrrolo[1,2-c]imidazol-1-yl)-2-[6-[4-[[4-[2-[4-[4-[[(3S)-2,6-dioxo-3-piperidyl]amino]-2-fluoro-phenyl]-1-piperidyl]-2-oxo-ethyl]piperazin-1-yl]methyl]phenyl]-4-fluoro-1-oxo-isoindolin-2-yl]-N-thiazol-2-yl-acetamide] | 12 | 19 | 8
N#Cc1cc(NC2CCC(=O)NC2=O)ccc1C1CCN(CC(=O)N2CCC(Oc3ccc(-c4cc(F)c5c(c4)C(=O)N(C(C(=O)Nc4nccs4)c4ncn6c4CCC6)C5)cc3)CC2)CC1 (stereo not drawn) [Compound 37, 2-(6-(4-((1-(2-(4-(2-cyano-4-((2,6-dioxopiperidin-3-yl)amino)phenyl)piperidin-1-yl)acetyl)piperidin-4-yl)oxy)phenyl)-4-fluoro-1-oxoisoindolin-2-yl)-2-(6,7-dihydro-5H-pyrrolo[1,2-c]imidazol-1-yl)-N-(thiazol-2-yl)acetamide] | 16 | 46 | 19
